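These data come from cells grown in 96-well plates and exposed to compound for 48 hours at five concentrations. Here, GI50 denotes the concentration required for 50% inhibition of growth. At the TGI there is no net growth.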
Tests used:
Assay in all cases: NCI anticancer screen, dose series, 48 h
[1] = tested on: HCC-2998 colon
[2] = tested on: NCI-H226 lung
[3] = tested on: UACC-62 melanoma
[4] = tested on: TK-10 renal
[5] = tested on: EKVX NSCLC
[6] = tested on: HL-60(TB) leukemia
[7] = tested on: MDA-MB-468 breast
[8] = tested on: SF-268 CNS
[9] = tested on: DU-145 prostate
[10] = tested on: ACHN renal
[11] = tested on: NCI-H522 lung
[12] = tested on: LOX IMVI melanoma
[13] = tested on: U251 CNS
[14] = tested on: OVCAR-4 ovarian
[15] = tested on: COLO 205 colon
[16] = tested on: SW-620 colon
[17] = tested on: NCI-H23 lung
[18] = tested on: SN12C renal
[19] = tested on: NCI-H460 lung
[20] = tested on: T-47D breast
[21] = tested on: MOLT-4 leukemia
[22] = tested on: A549 NSCLC
[23] = tested on: CAKI-1 renal
[24] = tested on: SK-MEL-28 melanoma
[25] = tested on: 786-0 renal
[26] = tested on: BT-549 breast
[27] = tested on: KM12 colon
[28] = tested on: MDA-MB-231 breast
[29] = tested on: SK-MEL-5 melanoma
[30] = tested on: HS 578T breast
[31] = tested on: UACC-257 melanoma
[32] = tested on: OVCAR-8 ovarian
[33] = tested on: MDA-MB-435
[34] = tested on: HCT-15 colon
[35] = tested on: SNB-75 CNS
[36] = tested on: SF-539 CNS
[37] = tested on: IGROV1 ovarian
[38] = tested on: HOP-62 NSCLC
[39] = tested on: SNB-19 CNS
[40] = tested on: OVCAR-3 ovarian
[41] = tested on: PC-3 prostate
[42] = tested on: RPMI-8226 leukemia
[43] = tested on: HCT-116 colon
[44] = tested on: HT29 colon
[45] = tested on: SF-295 CNS
[46] = tested on: RXF 393 renal
[47] = tested on: MCF7 breast
[48] = tested on: UO-31 renal
[49] = tested on: CCRF-CEM leukemia
[50] = tested on: OVCAR-5 ovarian
[51] = tested on: HOP-92 NSCLC
[52] = tested on: M14 melanoma
[53] = tested on: MALME-3M melanoma
[54] = tested on: SK-OV-3 ovarian
[55] = tested on: A498 renal
[56] = tested on: K-562 leukemia

SMILES: Clc1ccc(-c2ccc(OCCCN3CCN(c4ccncc4)CC3)cc2)cc1
- GI50 [1]: 13.3 µM
- TGI [1]: 26.6 µM
- GI50 [2]: 20.8 µM
- TGI [2]: 55.8 µM
- GI50 [3]: 16.7 µM
- TGI [3]: 30.5 µM
- GI50 [4]: 19.6 µM
- TGI [4]: 36.2 µM
- GI50 [5]: 12 µM
- TGI [5]: 27.9 µM
- GI50 [6]: 4.46 µM
- TGI [6]: 19.7 µM
- GI50 [7]: 6.28 µM
- TGI [7]: 19.5 µM
- GI50 [8]: 16.9 µM
- TGI [8]: 36.5 µM
- GI50 [9]: 17.9 µM
- TGI [9]: 55.4 µM
- GI50 [10]: 16.3 µM
- TGI [10]: 30.4 µM
- GI50 [11]: 16.6 µM
- TGI [11]: 31.9 µM
- GI50 [12]: 1.86 µM
- TGI [12]: 3.63 µM
- GI50 [13]: 11.8 µM
- TGI [13]: 25.4 µM
- GI50 [14]: 15.6 µM
- TGI [14]: 41.7 µM
- GI50 [15]: 7.31 µM
- TGI [15]: 20.6 µM
- GI50 [16]: 9.92 µM
- TGI [16]: 23.3 µM
- GI50 [17]: 13.9 µM
- TGI [17]: 29.1 µM
- GI50 [18]: 13 µM
- TGI [18]: 26.3 µM
- GI50 [19]: 7.47 µM
- TGI [19]: 21.4 µM
- GI50 [20]: 16.2 µM
- TGI [20]: 40.2 µM
- GI50 [21]: 6.71 µM
- TGI [21]: > 100 µM
- GI50 [22]: 15.1 µM
- TGI [22]: 29.9 µM
- GI50 [23]: 15.3 µM
- TGI [23]: 32.4 µM
- GI50 [24]: 15.3 µM
- TGI [24]: 29.2 µM
- GI50 [25]: 14 µM
- TGI [25]: 27.1 µM
- GI50 [26]: 11.7 µM
- TGI [26]: 25.9 µM
- GI50 [27]: 14.5 µM
- TGI [27]: 29.7 µM
- GI50 [28]: 11.8 µM
- TGI [28]: 24.7 µM
- GI50 [29]: 14.9 µM
- TGI [29]: 28.1 µM
- GI50 [30]: 17.9 µM
- TGI [30]: 45.3 µM
- GI50 [31]: 17.3 µM
- TGI [31]: 32.6 µM
- GI50 [32]: 22 µM
- TGI [32]: 68.1 µM
- GI50 [33]: 11.1 µM
- TGI [33]: 23.5 µM
- GI50 [34]: 1.88 µM
- TGI [34]: 3.82 µM
- GI50 [35]: 14.9 µM
- TGI [35]: 32.5 µM
- GI50 [36]: 12.5 µM
- TGI [36]: 25.4 µM
- GI50 [37]: 16.8 µM
- TGI [37]: 32.1 µM
- GI50 [38]: 14.7 µM
- TGI [38]: 29 µM
- GI50 [39]: 15.7 µM
- TGI [39]: 30 µM
- GI50 [40]: 13 µM
- TGI [40]: 30.2 µM
- GI50 [41]: 8.43 µM
- TGI [41]: 51.3 µM
- GI50 [42]: 6.95 µM
- TGI [42]: > 100 µM
- GI50 [43]: 2.73 µM
- TGI [43]: 10.4 µM
- GI50 [44]: 3.77 µM
- TGI [44]: 14.8 µM
- GI50 [45]: 13.9 µM
- TGI [45]: 28.1 µM
- GI50 [46]: 6.74 µM
- TGI [46]: 20.6 µM
- GI50 [47]: 6.19 µM
- TGI [47]: 21.2 µM
- GI50 [48]: 14.7 µM
- TGI [48]: 29.6 µM
- GI50 [49]: 4.65 µM
- TGI [49]: 24.1 µM
- GI50 [50]: 14.5 µM
- TGI [50]: 28.6 µM
- GI50 [51]: 3.46 µM
- TGI [51]: 20.3 µM
- GI50 [52]: 14.3 µM
- TGI [52]: 28.7 µM
- GI50 [53]: 18.1 µM
- TGI [53]: 32.7 µM
- GI50 [54]: 15.5 µM
- TGI [54]: 30.4 µM
- GI50 [55]: 15.8 µM
- TGI [55]: 29.6 µM
- GI50 [56]: 2.64 µM
- TGI [56]: > 100 µM
